Laboratory results: article PMC2658056 (The Journal of Biological Chemistry, 2009)
Where a chain is given by its changes, count along the chain named. pIC50, pKi: −log10 of the molar value. Converted amounts (≈) assume the structure as drawn.

What was measured:
[1] = Maximum solubility in aqueous solution; type: physicochemical
human L-PGDS TG mice = assay: L-PGDS-mediated allergic airway inflammation; type: in vivo
[2] = Pharmacokinetics of AT-56 in plasma; type: in vivo, C57BL/6 mice; conditions: male, C57BL/6, mouse; for Tmax: mice
brain of H-PGDS KO mice = assay: PG production by stab wound brain injury
[3] = molecular target: T1, W54A/C89A/C186A mutant of mouse L-PGDS (Mus musculus, UniProt O09114, C186A/C89A/W54A); assay: Intrinsic tryptophan fluorescence quenching assay, W54A/C89A/C186A mutant; type: binding
T1 sequence (O09114 23-189 W54A/C89A/C186A): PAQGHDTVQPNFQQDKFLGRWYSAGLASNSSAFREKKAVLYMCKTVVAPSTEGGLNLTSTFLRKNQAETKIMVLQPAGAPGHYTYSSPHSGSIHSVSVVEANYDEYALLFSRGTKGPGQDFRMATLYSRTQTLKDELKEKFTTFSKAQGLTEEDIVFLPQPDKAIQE

[4] = Acute toxicity after oral administration; type: in vivo; conditions: dose of 100 mg/kg
[5] = molecular target: T2, recombinant mouse L-PGDS C89A/C186A mutant (Mus musculus, UniProt O09114, C186A/C89A); assay: biochemical
T2 sequence (O09114 23-189 C89A/C186A): T1 sequence (O09114 23-189 W54A/C89A/C186A) with A32W

[6] = system: L-PGDS-expressing human medulloblastoma TE-671 cells; assay: PG production by A23187-stimulated TE-671 cells; type: cell-based
m-PGES-1 = molecular target: T3, m-PGES-1 (Homo sapiens, UniProt O14684); assay: m-PGES-1 enzyme activity assay; type: biochemical; conditions: AT-56 up to 250 μM
T3 sequence (O14684 1-152): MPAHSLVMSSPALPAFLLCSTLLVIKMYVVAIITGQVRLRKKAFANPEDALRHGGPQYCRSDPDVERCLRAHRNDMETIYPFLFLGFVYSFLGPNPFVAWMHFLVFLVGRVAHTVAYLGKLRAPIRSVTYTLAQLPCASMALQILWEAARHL

COX-2 = molecular target: T4, COX-2 (Homo sapiens, UniProt P35354); assay: COX-2 enzyme activity assay; type: biochemical; conditions: AT-56 up to 250 μM
T4 sequence (P35354 18-604): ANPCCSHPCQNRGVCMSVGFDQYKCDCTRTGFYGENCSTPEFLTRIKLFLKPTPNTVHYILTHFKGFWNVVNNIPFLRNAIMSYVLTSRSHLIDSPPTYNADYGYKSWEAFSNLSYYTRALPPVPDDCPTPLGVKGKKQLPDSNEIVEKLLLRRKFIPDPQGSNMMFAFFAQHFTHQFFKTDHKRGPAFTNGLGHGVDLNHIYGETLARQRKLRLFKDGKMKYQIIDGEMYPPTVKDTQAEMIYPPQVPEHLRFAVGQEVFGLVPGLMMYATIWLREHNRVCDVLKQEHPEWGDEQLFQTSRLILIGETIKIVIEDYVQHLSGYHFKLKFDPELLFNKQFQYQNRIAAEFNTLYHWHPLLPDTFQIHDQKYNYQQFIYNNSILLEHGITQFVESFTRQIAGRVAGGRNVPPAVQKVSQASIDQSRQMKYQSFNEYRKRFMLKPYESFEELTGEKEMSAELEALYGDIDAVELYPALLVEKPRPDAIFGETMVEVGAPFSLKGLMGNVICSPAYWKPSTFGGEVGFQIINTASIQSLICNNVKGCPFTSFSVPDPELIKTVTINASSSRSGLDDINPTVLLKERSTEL

[7] = system: H-PGDS-expressing human megakaryoblastic MEG-01S cells; assay: PGD2 production by A23187-stimulated MEG-01S cells; type: cell-based
H-PGDS = H-PGDS (Homo sapiens, UniProt O60760); assay: H-PGDS enzyme activity assay; type: biochemical; conditions: AT-56 up to 250 μM
COX-1 = COX-1 (Homo sapiens, UniProt P23219); assay: COX-1 enzyme activity assay; type: biochemical; conditions: AT-56 up to 250 μM
[8] = molecular target: T5, C89A/C186A mutant of mouse L-PGDS (Mus musculus, UniProt O09114, C186A/C89A); assay: Intrinsic tryptophan fluorescence quenching assay, C89A/C186A mutant; type: binding
T5 sequence (O09114 23-189 C89A/C186A): T1 sequence (O09114 23-189 W54A/C89A/C186A) with A32W

[9] = 0 to 30 μM AT-56, 5 μM A23187, enzyme immunoassay

Chain of H-PGDS (O60760 whole entry, species assumed): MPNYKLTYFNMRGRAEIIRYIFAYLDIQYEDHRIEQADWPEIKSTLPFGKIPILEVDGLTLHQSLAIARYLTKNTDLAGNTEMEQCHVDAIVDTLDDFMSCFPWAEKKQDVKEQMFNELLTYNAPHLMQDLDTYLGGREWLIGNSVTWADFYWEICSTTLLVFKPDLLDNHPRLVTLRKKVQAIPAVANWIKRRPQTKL
Chain of COX-1 (P23219 24-599): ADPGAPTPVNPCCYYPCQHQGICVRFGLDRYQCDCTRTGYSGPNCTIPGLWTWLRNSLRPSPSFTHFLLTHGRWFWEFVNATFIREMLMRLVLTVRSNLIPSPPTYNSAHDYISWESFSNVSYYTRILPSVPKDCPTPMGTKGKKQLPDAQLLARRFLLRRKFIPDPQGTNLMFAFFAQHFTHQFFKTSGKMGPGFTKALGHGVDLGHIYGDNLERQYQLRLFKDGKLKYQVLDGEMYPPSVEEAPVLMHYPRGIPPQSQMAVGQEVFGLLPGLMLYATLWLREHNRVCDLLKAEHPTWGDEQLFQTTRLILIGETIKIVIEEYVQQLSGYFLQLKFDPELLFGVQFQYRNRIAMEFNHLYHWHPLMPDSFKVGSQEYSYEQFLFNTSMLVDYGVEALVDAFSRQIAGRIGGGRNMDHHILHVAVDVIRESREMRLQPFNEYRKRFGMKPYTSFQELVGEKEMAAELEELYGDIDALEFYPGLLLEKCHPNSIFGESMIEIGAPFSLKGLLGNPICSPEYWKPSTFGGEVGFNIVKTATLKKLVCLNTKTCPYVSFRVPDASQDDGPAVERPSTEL

Compound: C1=Cc2ccccc2C(=C2CCN(CCCCc3nn[nH]n3)CC2)c2ccccc21 [AT-56, 4-dibenzo[a,d]cyclohepten-5-ylidene-1-[4-(2H-tetrazol-5-yl)-butyl]-piperidine]
- solubility ([1]; 10% DMSO): 260 µM (≈ 103 µg/mL)
- solubility ([1]; saline containing 1% DMSO): 90 µM (≈ 35.8 µg/mL)
- total cells in BALF, actual number (human L-PGDS TG mice; 1 mg/kg AT-56 p.o.): 8.7 ± 1.9 × 10^4 cells/ml
- total cells in BALF, actual number (human L-PGDS TG mice; 10 mg/kg AT-56 p.o.): 2.7 ± 0.4 × 10^4 cells/ml
- AUC ([2]; iv, 2 mg/kg): 1280 ng·h/mL
- C0 ([2]; iv, 2 mg/kg): 860 ng/mL
- half-life ([2]; iv, 2 mg/kg): 2.35 h
- Tmax ([2]; iv, 2 mg/kg): 0.08 h
- AUC ([2]; po, 10 mg/kg): 8950 ng·h/mL
- Cmax ([2]; po, 10 mg/kg): 2150 ng/mL
- bioavailability ([2]; po, 10 mg/kg): 82%
- concentration at 12 h ([2]; po, 10 mg/kg): < 0.4 ng/mL
- half-life ([2]; po, 10 mg/kg): 1.71 h
- Tmax ([2]; po, 10 mg/kg, per os): 0.5 h
- total amount of PGD2 in the brain decreased to (brain of H-PGDS KO mice; 30 mg/kg AT-56 orally 1 h before the injury): 40%
- amount of PGE2 in the brain (brain of H-PGDS KO mice; AT-56 orally 1–30 mg/kg): not significantly changed
- amount of PGF2α in the brain (brain of H-PGDS KO mice; AT-56 orally 1–30 mg/kg): not significantly changed
- fluorescence quenching ([3]; 10 μM AT-56): did not show the fluorescence quenching
- acute toxic effects [4]: did not detect any acute toxic effects
- pIC50 [5]: 4.02
- pKi [5]: 4.12
- effect on PGE2 production [6, 9]: without affecting
- effect on PGF2α production [6, 9]: without affecting
- PGD2 biosynthesis ([6]; 10 μM AT-56, A23187): only a base level
- arachidonic acid release ([6]; 10 μM AT-56, A23187): without changing
- pIC50 ([6]; Homo sapiens, TE-671, read-out: IC50, PGD2 production): ~5.52
- production of other 14C-labeled metabolites ([6]; [1-14C]arachidonic acid-prelabeled cells, AT-56 up to 100 μM): not inhibited
- effect on m-PGES-1 activity (m-PGES-1): not significantly affected
- effect on COX-2 activity (COX-2): not significantly affected
- effect on PGD2 production [7]: no effect
- effect on H-PGDS activity (H-PGDS): not significantly affected
- effect on COX-1 activity (COX-1): not significantly affected
- effect on binding of 13-cis-retinoic acid to L-PGDS ([8]; 10 μM AT-56): did not inhibit the binding
- tryptophan fluorescence intensity decreased to ([8]; 10 μM AT-56): about 60%

Compound: CC1=C(/C=C/C(C)=C/C=C/C(C)=C\C(=O)O)C(C)(C)CCC1 [13-cis-retinoic acid, reference compound]
- tryptophan fluorescence intensity decreased to ([3]; 10 μM 13-cis-retinoic acid): < 10%
- tryptophan fluorescence intensity decreased to ([8]; 10 μM 13-cis-retinoic acid, absence of AT-56): about 8%
- tryptophan fluorescence intensity decreased to ([8]; 10 μM 13-cis-retinoic acid, in the presence of 10 μM AT-56): < 10%

Compound: c1ccc(C(OC2CCN(CCCc3nnn[nH]3)CC2)c2ccccc2)cc1 [HQL-79, 4-benzhydryloxy-1-(3-(1H-tetrazol-5-yl)-propyl)-piperidine, reference compound]
- effect on PGD2 production ([6]; TE-671 cells): but not from TE-671 cells
- effect on PGD2 production [7]: inhibited PGD2 production
